Source: patent publication US7563764B2, “Antimicrobial peptides based on tripeptide repeats” (E. I. du Pont de Nemours and Company, priority 2004, dated 2009)
No end group written: not given here.

System: E. coli ATCC 25922
Type: cell-based, Escherichia coli
Details: ATCC 25922, 24 h
Experimental: The term “MIC” refers to minimal inhibitory concentration and will be defined as the lowest concentration of either soluble peptide or peptide immobilized on a polymer that results in total kill of bacteria.
The minimal inhibitory concentration (MIC) for the peptides was determined in sterile microtiter plates in a final volume of 200 μL using Trypticase Soy Broth (TSB; Difco Laboratories, Detroit, Mich.) as the growth medium. Serial two-fold dilutions of the peptide stock were made in the plate wells such that concentrations ranged from 512 to 2 μg/mL in a volume of 100 μL. Each well was then inoculated with 100 μL of a dilute suspension of bacteria in TSB yielding a final concentration of 1×10^4 bacteria/mL. The final peptide concentrations ranged from […]. The assay plates were incubated at 37° C. for 24 hours inside a Bioscreen C microtitre plate reader (Thermo Labsystems; Vantaa, Finland). Optical Density (OD) of the medium at 600 nm was recorded every 20 minutes to monitor cell growth. The lowest concentration of peptide preventing bacterial growth during the 24 hr period was defined as the MIC.

“FKAFKAFKAFKAFKA [SEQ ID NO: 4, FKAFKAFKAFKAFKA]” showed an MIC of 128 µg/mL.
“FKAFKAFKAFKAFKAFKA [SEQ ID NO: 5, FKAFKAFKAFKAFKAFKA]” showed an MIC of 32 µg/mL.
“LKALKALKALKALKR [SEQ ID NO: 1, LKALKALKALKALKR]” was tested, and the MIC was 64 µg/mL.
Sequence “LKVLKVLKVLKVLKV [SEQ ID NO: 2, LKVLKVLKVLKVLKV]” has an MIC of 32 µg/mL.
Sequence “LKVLKVLKVLKVLKVLKV [SEQ ID NO: 3, LKVLKVLKVLKVLKVLKV]” has an MIC of 4 µg/mL.
